Test results reported in paper PMC5943518, “The protein kinase CK2 catalytic domain from Plasmodium falciparum: crystal structure, tyrosine kinase activity and inhibition” (Scientific Reports, 2018).

What was measured:
[1] = target: T1, PfCK2α (protein kinase CK2 catalytic α subunit), PfCK2αD179S (Plasmodium falciparum, UniProt Q8IIR9, D179S); experiment: co-crystal structure at […] Å without Mg2+; ITC (KD […] without Mg2+, […] with […] Mg2+); type: binding
T1 construct: gene PF3D7_1108400; Ile12 to Ser335 (catalytic domain), hexa-histidine tag at C-terminus
T1 sequence (Q8IIR9 12-335 D179S): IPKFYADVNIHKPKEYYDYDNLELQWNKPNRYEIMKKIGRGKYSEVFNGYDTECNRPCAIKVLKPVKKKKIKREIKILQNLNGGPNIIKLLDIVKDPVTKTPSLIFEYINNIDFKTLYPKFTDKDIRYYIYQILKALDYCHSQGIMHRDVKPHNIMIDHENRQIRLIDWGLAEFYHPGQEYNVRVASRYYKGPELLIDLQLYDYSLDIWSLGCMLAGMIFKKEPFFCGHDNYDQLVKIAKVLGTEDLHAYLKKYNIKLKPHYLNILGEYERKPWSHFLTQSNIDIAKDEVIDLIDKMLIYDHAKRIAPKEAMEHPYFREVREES

[2] = target: T2, PfCK2 (PfCK2α, protein kinase CK2 catalytic subunit) (Plasmodium falciparum, UniProt Q8IIR9); experiment: radiometric peptide kinase assay with γ[…]-ATP ([…] ATP); type: biochemical
T2 construct: gene PF3D7_1108400; Ile12 to Ser335 of PfCK2α

SMILES: Nc1ncnc2c1ncn2[C@@H]1O[C@H](COP(=O)(O)OP(=O)(O)OP(=O)(O)O)[C@@H](O)[C@H]1O [ATP]
- Kd [1]: 22.3 µM

SMILES: O=C(O)c1ccc2c(c1)nc(Nc1cccc(Cl)c1)c1ccncc12 [CX4945]
- IC50 [2]: 0.0132 µM
